Columns and labels:
dsDNA = assay: Fluorometric titration of styryl dyes with dsDNA in buffer solution; type: binding, Salmon; details: for em^free / Øf^free: free dye; for fluorescence emission increase with DNA versus free compound: highest concentration of DNA tested, 50 μg mL^−1; for Øf^DNA: quantum yield with dsDNA; for Øf^free: quantum yield; for max: spectrophotometric properties of the styryl dyes; for em^DNA: with dsDNA
Description: In some embodiments, the synthesis of compounds B was achieved by refusing with the pyridine derivatives and iodomethane for 2 hours, and compound B crystallized out in ethyl acetate. The condensation with aldehydes (A) and compound B was performed by refusing with piperidine for 2 hours in EtOH. After cooling to room temperature, the crystallized compounds were filtered and washed with ethyl acetate. With these purified compounds, the fluorescence intensity change upon addition of DNA was tested.
With a series of concentrations of dsDNA (double stranded DNA) added to compound 1, a linear increase in the fluorescence intensities was observed. (FIG. 17). […] At the highest concentration of DNA tested (50 μg mL^−1), the fluorescence emission reached up to 13.3 times higher than that of the free compound. Briefly, FIGS. 18A-18C show the absorption and fluorescence spectra of compounds 1, 2, and 3 (Dye 1, 2, 3 [50 μM], dsDNA [50 μg mL^−1]). A blue shift of 17 nm in the emission wavelength upon DNA addition was observed, without a significant excitation wavelength shift. The structure of compound 1 includes a 2,4,5-trimethoxy group from the benzaldehyde moiety and a unique adamantyl pyridinium functionality.
Unless otherwise noted, starting materials and solvents were purchased from commercial suppliers, and used without purification. Ethanol (EtOH) and ethyl acetate (EA) from Acros Organics (Fisher Scientific, UK) were used as the reaction solvents without any prior purification. Salmon testes solid dsDNA, and phosphate buffered saline (PBS) (NaCl 120 mM, KCl 2.7 mM, and phosphate buffer 10 mM, pH=7.4 at 24° C.) were purchased from Sigma-Aldrich and needed no further purification. Fluorescence intensities were measured by a Jobin Yvon Horiba FluoroMAX-3 fluorimeter (Horiba Group, Kyoto, Japan) with a quartz cuvette cell (10 mm×10 mm×4.5 cm; Starna (Atascadero, Calif.). ^1H-NMR (200 MHz) spectra were determined on Gemini 200 spectrometer (Varian, Inc., Palo Alto, Calif.). Chemical shifts were reported in parts per million (ppm) relative to the line of a singlet at 2.50 ppm for DMSO-d6 and coupling constants (j) are in Hertz (Hz). The following abbreviations are used for spin multiplicity: s=singlet, d=doublet, t=triplet, m=multiplet, and b=broad. All dye products were identified by LC-MS from Agilent Technology (Palo Alto, Calif.), using a C18 column (20×4.0 mm), with 4 minutes elution using a gradient of 5-95% CH3CN (containing 1% acetic acid)-H2O (containing 1% acetic acid), with UV detector at %=400 nm and an electrospray ionization source.

[1] = tested on: live UACC-62 human melanoma cells; assay: Cell-based screening of extended styryl library: nuclear staining of live cells; details: live UACC-62 cells; compounds 1-3 at 500 μM
Excerpt: In one preferred embodiment, an extended styryl dye library, composed of 855 compounds, was synthesized (See, Example 7) and screened for the subcellular localization in live […] human melanoma cells on glass bottom 96-well plates by the combinatorial library synthesis methods disclosed herein. […] The compounds were resynthesized on large scale for further study. (FIG. 16).
Therefore, both 2,4,5-trunethoxy groups and the adamantyl group are important in the specific interaction of compound 1 and DNA. The three related compounds 1, 2, and 3 were incubated in live UACC-62 human melanoma cells to compare their nuclear localization properties. (FIG. 19).

HeLa cells = assay: Kinetic imaging of NBD-triazine probe uptake and sequestration, fitted to nested two-compartment transport model; type: cell-based; details: median over optimal solutions within 5% of the best fit
In short: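 HeLa cells (3000/well, plated 24 h earlier) imaged live with 10 μM NBD probe in RPMI containing 1.0 mM bromophenol blue, about 2 h for influx, then washed and imaged 6 h for efflux, every ~7 min. Perinuclear pixel-intensity CV fitted to a nested two-compartment transport model by simulated annealing.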

[2] = pyridine derivatives; cited from earlier work

em^free (dsDNA) [nm]	Øf^DNA (dsDNA)	Øf^free (dsDNA)	max (dsDNA) [nm]	em^DNA (dsDNA) [nm]	median Pap(cyto) (apparent partition coefficient between extracellular medium and cytosol) (HeLa cells)	median Pap(ves) (apparent partition coefficient between cytosol and intracellular vesicles, k(ves)in/k(ves)out) (HeLa cells)	SMILES	Øf^DNA/Øf^free (dsDNA)	fluorescence emission increase with DNA versus free compound (dsDNA) [fold]	nuclear staining / nuclear localization in live cells [1]	pKa [2]	other results
491	0.0037	0.0024	370	592			COc1ccc(C=Cc2cc[n+](C34CC5CC(CC(C5)C3)C4)cc2)c(OC)c1OC.[Br-] [Compound 3]	1.5	1.5	stronger fluorescence backgrounds and spread throughout the cytoplasm		
					15351.10	100.42	COc1cccc(CNc2nc(NCCCCCCNc3ccc([N+](=O)[O-])c4nonc34)nc(NCCc3ccccn3)n2)c1 [Compound B9]				~6.0	
					0.06	99497.01	COc1ccc(CCNc2nc(NCCCCCCNc3ccc([N+](=O)[O-])c4nonc34)nc(NCCc3ccccn3)n2)cc1 [Compound D9]				~6.0	
					2989.27	2940.20	O=[N+]([O-])c1ccc(NCCCCCCNc2nc(NCCc3ccccn3)nc(NCCC(c3ccccc3)c3ccccc3)n2)c2nonc12 [Compound F9]				~6.0	

Continued, molecule first:

SMILES	em^free (dsDNA) [nm]	Øf^DNA (dsDNA)	Øf^free (dsDNA)	max (dsDNA) [nm]	em^DNA (dsDNA) [nm]	median Pap(cyto) (apparent partition coefficient between extracellular medium and cytosol) (HeLa cells)	median Pap(ves) (apparent partition coefficient between cytosol and intracellular vesicles, k(ves)in/k(ves)out) (HeLa cells)	Øf^DNA/Øf^free (dsDNA)	fluorescence emission increase with DNA versus free compound (dsDNA) [fold]	nuclear staining / nuclear localization in live cells [1]	pKa [2]	other results
COc1cc(OC)c(OC)cc1C=Cc1cc[n+](C23CC4CC(CC(C4)C2)C3)cc1.[Br-] [Compound 1, 2-[4-[5-(trimethyoxy)phenyl]-ethenyl-1-adamantyl]-4-methylpyridinium bromide]	583	0.0032	0.00024	413	566			13.3	13.3	clearly stains the nucleus of live cells more selectively		blue shift in the emission wavelength upon DNA addition (dsDNA): 17 nm; emission wavelength (dsDNA): 583 nm; excitation wavelength (dsDNA): 413 nm; fluorescence intensity change upon addition of DNA (dsDNA): strong fluorescence increase; linear fluorescence response range (dsDNA; in PBS, without self-quenching or wavelength shifts): 0.05 to 100 µM
COc1cc(C=Cc2cc[n+](C34CC5CC(CC(C5)C3)C4)cc2)cc(OC)c1OC.[Br-] [Compound 2]	553	0.022	0.0051	366	520			4.3	4.3	stronger fluorescence backgrounds and spread throughout the cytoplasm		
COc1cc(OC)c(OC)cc1C=Cc1cc[n+](C)cc1.[I-] [Compound 4, 1-Methyl-4[2-(2,4,5-trimethoxy-phenyl)-vinyl]pyridinium iodide]												fluorescence intensity change upon addition of DNA (dsDNA): significantly reduced the DNA response

— US20070111251A1, “Chemical address tags” (priority 2003, published 2007)
